Experimental data taken from PMC12587545, “Noncytotoxic polymyxin derivatives enhance antibiotic action against multidrug-resistant Gram-negative bacteria” (Antimicrobial Agents and Chemotherapy, 2025).
Converted amounts (≈) assume the structure as drawn. Like-named read-outs stand apart in the source and are kept apart here. Positions of bridges follow the written chain, without caps; N, C: chain ends. Non-standard residues stand in square brackets, D forms with d. Residues, ends and D or L forms follow the SMILES beside them. *: point of attachment. Agp = N=C(N)NC[C@H](N)C(=O)O; X1 = CC[C@H](C)CCCCC(=O)*; Octanoyl = CCCCCCCC(=O)*; Dab = NCC[C@H](N)C(=O)O; Dap = NC[C@H](N)C(=O)O

Key:
K. pneumoniae = system: K. pneumoniae
Description: (§1) The bacterial isolates were acquired from ATCC or the Canadian Ward Surveillance (CANWARD) study ([56]). CANWARD isolates were collected from infected patients admitted to participating medical centers across Canada.
(§2) The antibiotic or compound was serially diluted 2-fold in CAMHB on a 96-well plate and was incubated with equal volumes of bacterial inoculum overnight at 37°C. Wells containing only media were used as negative controls, and wells containing only bacteria were used as positive controls. Antibacterial activity was measured by the MIC, or the lowest concentration of agent required to inhibit visible bacterial growth. Turbidity was confirmed with a Molecular Devices (United States) EMax Plus microplate reader at a wavelength of 590 nm.

E. cloacae = system: E. cloacae
Description: as §1, §2

P. aeruginosa [1] = system: P. aeruginosa
Description: as §1, §2

E. coli = system: E. coli
Description: as §1
as §2, with “growth.” for “growth. Turbidity was confirmed with a Molecular Devices (United States) EMax Plus microplate reader at a wavelength of 590 nm.”

A. baumannii [2] = format: cell-based, Acinetobacter baumannii
Description: Gram-negative and Gram-positive bacterial isolates were grown in lysogeny broth (LB) and brain heart infusion, respectively, overnight in a shaking incubator at 250 rpm and at 37°C.
The antibacterial activity of the antibiotics and compounds was assessed using the broth microdilution assay in accordance with Clinical Laboratory Standards Institute (CLSI) guidelines ([36]), and by following a previously described protocol ([27][–][29], [54], [55]). Bacterial culture grown overnight was diluted in saline to 0.5 McFarland turbidity and was further diluted 1:50 in CAMHB to attain a final concentration of 5 × 10^5 colony-forming units (cfu)/mL for inoculation. The antibiotic or compound was serially diluted 2-fold in CAMHB on a 96-well plate and was incubated with equal volumes of bacterial inoculum overnight at 37°C. Wells containing only media were used as negative controls, and wells containing only bacteria were used as positive controls. Antibacterial activity was measured by the MIC, or the lowest concentration of agent required to inhibit visible bacterial growth. Turbidity was confirmed with a Molecular Devices (United States) EMax Plus microplate reader at a wavelength of 590 nm.

P. aeruginosa [3] = experiment: Checkerboard assay (antibiotic potentiation); format: cell-based, Pseudomonas aeruginosa; settings: P. aeruginosa PAO1; compound alone
Description: The interaction between the compounds and the antibiotics was evaluated using the fractional inhibitory concentration (FIC) index. FIC indices of ≤0.5 is synergistic, 0.5 < × ≤ 4 is additive, whereas >4 is antagonistic ([34]).
Synergy was measured by the FIC index, which is the summation of the individual FICs of the antibiotic and the compound. The FIC is calculated by dividing the MIC of one agent in the presence of another by the MIC of the agent alone. […] The FBS studies were conducted by following a previously published protocol ([29], [50]). The FBS was inactivated by heating at 56°C for 30 min with constant swirling.

RPTEC/TERT1 = format: cell-based, human; settings: 48 h
Description: (§3) Kidney cell lines, HK-2 (CRL-2190) and RPTEC/TERT1 (CRL-4031), and neural cell lines, U-87 MG (HTB-14) and SK-N-SH (HTB-11), were obtained from American Type Culture Collection (ATCC). HK-2 cells were cultured in T75 flasks with keratinocyte serum-free medium supplemented with bovine pituitary extract, human epidermal growth factor, and 2.5% FBS. RPTEC/TERT1 cells were cultured in T75 flasks with Dulbecco’s modified Eagle’s medium:F12 supplemented with the ATCC (United States) human telomerase reverse transcriptase immortalized RPTEC growth kit, G418 (0.1 mg/mL final concentration), and 2% FBS. Both U-87 MG and SK-N-SH cells were cultured in minimal essential media supplemented with 10% FBS. The cells were incubated in a humidified atmosphere at 5% CO2 and at 37°C.
(§4) The cytotoxicity of the compounds toward the mammalian cell lines was assessed using the cell viability assay protocols as previously described ([29]). Designated wells in 96-well plates were seeded with HK-2 (5,000 cells), RPTEC/TERT1 (8,000 cells), U-87 MG (7,000 cells), or SK-N-SH (8,000 cells) in 50 µL. Blank wells received an identical volume of only media. After incubating the cells for 24 h, all wells were treated with varying concentrations of the compound and incubated for 48 h. Subsequently, PrestoBlue reagent (Invitrogen, United States) was added to the wells to a final concentration of 10% (vol/vol), and the plate was incubated for an additional 1 h. Fluorescence was measured with a SpectraMax M2 plate reader (Molecular Devices, United States), at excitation and emission wavelengths of 560 and 590 nm, respectively. Values from the blank wells were subtracted from the corresponding wells containing cells. The cell viability relative to the controls with vehicle was calculated and presented as mean ± standard deviation of at least two experiments with five replicates each. CC50 values were obtained using GraphPad Prism (version 10.4.1) by non-linear regression (four-parameter logistic fit).

HK-2 = format: cell-based, human; settings: 48 h
Description: as §3, §4

A. baumannii [4] = experiment: Checkerboard assay (antibiotic potentiation); format: cell-based, Acinetobacter baumannii; settings: A. baumannii ATCC 17978; compound alone
Description: The interaction between the compounds and the antibiotics was evaluated using the fractional inhibitory concentration (FIC) index. FIC indices of ≤0.5 is synergistic, 0.5 < × ≤ 4 is additive, whereas >4 is antagonistic ([34]). […] .
as §1
The antibiotic and compounds were serially diluted 2-fold in CAMHB along the x- and y-axis, respectively, on a 96-well plate that was subsequently incubated with equal volumes of bacterial inoculum overnight at 37°C. Wells containing only media were used as negative controls, and wells containing only bacteria were used as positive controls. Synergy was measured by the FIC index, which is the summation of the individual FICs of the antibiotic and the compound. The FIC is calculated by dividing the MIC of one agent in the presence of another by the MIC of the agent alone. Turbidity was confirmed with a Molecular Devices (United States) EMax Plus microplate reader at a wavelength of 590 nm. The FBS studies were conducted by following a previously published protocol ([29], [50]). The FBS was inactivated by heating at 56°C for 30 min with constant swirling.

SK-N-SH = experiment: Cell viability assay (PrestoBlue); format: cell-based; settings: SK-N-SH
Description: as §3
as §4, with “After incubating the cells for 24 h, all wells were treated with varying concentrations of the compound and incubated for 48 h.” left out

U-87 MG = experiment: Cell viability assay (PrestoBlue); format: cell-based; settings: U-87 MG
Description: as §3
as §4, with “After incubating the cells for 24 h, all wells were treated with varying concentrations of the compound and incubated for 48 h.” left out

[5] = cited from earlier work
Description: Although the amphiphilic nature of polymyxins is crucial to permeabilize the outer membrane, this property can also be detrimental as it increases binding affinity to serum proteins, thereby limiting bioavailability ([50]). […] To assess the impact of serum binding on antibiotic potentiation, FBS was added to the media to simulate these conditions (Table 10). Zoliflodacin potentiation by compound 1 was diminished with increasing ...

[6] = K. pneumoniae 113250, colistin-resistant
[7] = E. cloacae 121887, colistin-resistant
[8] = P. aeruginosa 259-96916, clinical isolate
[9] = P. aeruginosa 262-101856, clinical isolate
[10] = P. aeruginosa 264-104354, clinical isolate
[11] = P. aeruginosa 101243, colistin-resistant
[12] = P. aeruginosa 114228, colistin-resistant
[13] = E. coli 94393, colistin-resistant
[14] = E. coli 94474, colistin-resistant
[15] = A. baumannii 92247, colistin-resistant

Compound: CC[C@H](C)CCCCC(=O)N[C@@H](CCN)C(=O)N[C@H](C(=O)N[C@@H](CCN)C(=O)N[C@H]1CCNC(=O)[C@H]([C@@H](C)O)NC(=O)[C@H](CCN)NC(=O)[C@H](CCN)NC(=O)[C@H](CC(C)C)NC(=O)[C@@H](CC(C)C)NC(=O)[C@H](CCN)NC1=O)[C@@H](C)O [Colistin, colistin] (X1-[Dab]T[Dab][Dab][Dab][dL]L[Dab][Dab]T; lactam 4-C (inferred); N-terminus assumed)
- MIC (K. pneumoniae; [6]): 256 µg/mL (≈ 219 µM)
- MIC (K. pneumoniae; K. pneumoniae 116381): 1 µg/mL (≈ 0.855 µM)
- MIC (E. cloacae; E. cloacae 117029): 0.25 µg/mL (≈ 0.214 µM)
- MIC (E. cloacae; [7]): >16 µg/mL
- MIC (P. aeruginosa [1]; [8]): 0.5 µg/mL (≈ 0.428 µM)
- MIC (P. aeruginosa [1]; [9]): 2 µg/mL (≈ 1.71 µM)
- MIC (P. aeruginosa [1]; [10]): 1 µg/mL (≈ 0.855 µM)
- MIC (P. aeruginosa [1]; [11]): 1024 µg/mL (≈ 876 µM)
- MIC (P. aeruginosa [1]; [12]): 4 µg/mL (≈ 3.42 µM)
- MIC (E. coli; [13]): 4 µg/mL (≈ 3.42 µM)
- MIC (E. coli; [14]): 16 µg/mL (≈ 13.7 µM)
- MIC (E. coli; E. coli 107115): 0.125 µg/mL (≈ 0.107 µM)
- MIC (E. coli; E. coli 131629): ≤0.25 µg/mL
- MIC (A. baumannii [2]; [15]): 4 µg/mL (≈ 3.42 µM)
- MIC (A. baumannii [2]; A. baumannii 110193): 0.5 µg/mL (≈ 0.428 µM)
- MIC (A. baumannii [2]; A. baumannii AB027): 0.25 µg/mL (≈ 0.214 µM)
- MIC (A. baumannii [2]; A. baumannii AB031): 0.25 µg/mL (≈ 0.214 µM)

Compound: CCCCCCCC(=O)N[C@@H](CN)C(=O)N[C@H](C(=O)N[C@@H](CC(=O)O)C(=O)N[C@H]1CCNC(=O)[C@H]([C@@H](C)O)NC(=O)[C@H](CN)NC(=O)[C@H](CN)NC(=O)[C@H](CC(C)C)NC(=O)[C@@H](Cc2ccccc2)NC(=O)[C@H](CN)NC1=O)[C@@H](C)O [Compound 3] (Octanoyl-[Dap]TD[Dab][Dap][dF]L[Dap][Dap]T; lactam 4-C)
- MIC (P. aeruginosa [1]): >128 µg/mL
- MIC (E. coli): >128 µg/mL
- MIC (A. baumannii [2]): >128 µg/mL
- MICcompound (P. aeruginosa [3]): >128 µg/mL
- CC50 in RPTEC/TERT1 (RPTEC/TERT1): 627.2 µM
- CC50 in HK-2 (HK-2): 215.5 µM
- MICcompound (A. baumannii [4]): >128 µg/mL

Compound: CCCCCCCC(=O)N[C@@H](CNC(=N)N)C(=O)N[C@H](C(=O)N[C@@H](CNC(=N)N)C(=O)N[C@H]1CCNC(=O)[C@H]([C@@H](C)O)NC(=O)[C@H](CNC(=N)N)NC(=O)[C@H](CNC(=N)N)NC(=O)[C@H](CC(C)C)NC(=O)[C@@H](Cc2ccccc2)NC(=O)[C@H](CNC(=N)N)NC1=O)[C@@H](C)O [Compound 2] (Octanoyl-[Agp]T[Agp][Dab][Agp][dF]L[Agp][Agp]T; lactam 4-C)
- CC50 in RPTEC/TERT1 (RPTEC/TERT1): 28 µM
- CC50 in HK-2 (HK-2): 26.9 µM

Compound: Polymyxin B [PMB]
- MIC (K. pneumoniae; [6]): 128 µg/mL
- MIC (K. pneumoniae; K. pneumoniae 116381): 1 µg/mL
- MIC (E. cloacae; E. cloacae 117029): 0.5 µg/mL
- MIC (E. cloacae; [7]): >128 µg/mL
- MIC (P. aeruginosa [1]; [8]): ≤0.063 µg/mL
- MIC (P. aeruginosa [1]; [9]): 0.5 µg/mL
- MIC (P. aeruginosa [1]; [10]): 2 µg/mL
- MIC (P. aeruginosa [1]; [11]): >128 µg/mL
- MIC (P. aeruginosa [1]; [12]): 64 µg/mL
- MIC (P. aeruginosa [1]; P. aeruginosa PAO1, wild-type, CAMHB, overnight 37°C): 1 µg/mL
- toxicity (SK-N-SH): lack of toxicity
- toxicity (U-87 MG): lack of toxicity
- MIC (E. coli; [13]): 4 µg/mL
- MIC (E. coli; [14]): 16 µg/mL
- MIC (E. coli; E. coli 107115): 0.25 µg/mL
- MIC (E. coli; E. coli 131629): ≤0.25 µg/mL
- MIC (E. coli; E. coli ATCC 25922, wild-type): 0.5 µg/mL
- MIC (A. baumannii [2]; [15]): 8 µg/mL
- MIC (A. baumannii [2]; A. baumannii 110193): 1 µg/mL
- MIC (A. baumannii [2]; A. baumannii AB027): 0.25 µg/mL
- MIC (A. baumannii [2]; A. baumannii ATCC 17978, wild-type): 2 µg/mL
- mean protein binding [5]: > 90%
- median protein binding [5]: 58%
